Values of other authors in US6500833B1, “(+)-Hydroxyrisperidone compositions and methods” (priority 1998, dated 2002).

Details: condition associated with torsades de pointes

Row | SMILES | prolongation of QT interval
1 | Cc1nc2n(c(=O)c1CCN1CCC(c3noc4cc(F)ccc34)CC1)CCCC2O (racemic) [hydroxyrisperidone, 9-hydroxyrisperidone] | implicated in a prolongation of QT interval
2 | Cc1nc2n(c(=O)c1CCN1CCC(c3noc4cc(F)ccc34)CC1)CCCC2 [risperidone, Risperidone] | implicated in a prolongation of QT interval
